Experimental data: patent US20140057915A1, “KINASE INHIBITORS” (TOPIVERT PHARMA LIMITED, priority 2012, published 2014)
pEC50, pIC50: −log10 of the molar value. Where two headings read alike, the source gives them in different places.

Assays:
[1] = test system: d-U937 cells; assay: Cell viability: MTT assay; format: cell-based, human; details: 1 μg/mL
Summary of the method: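 MTT reduction (1 h, DMSO solubilisation, A550) measured after compound treatment at 1 or 10 μg/mL of differentiated U937 cells for 4 h (5% FCS RPMI1640) or 24 h (10% FCS). Percentage viability loss computed relative to 0.5% DMSO vehicle, with increases tabulated as negative values.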

[2] = molecular target: Syk (Homo sapiens, UniProt P43405); assay: Syk enzyme inhibition (FRET); format: biochemical
Summary of the method: (§1)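 Kinase activity is measured on a dual-labelled synthetic peptide by FRET. ATP is supplied as an 800 μM solution for c-Src and a 60 μM solution for Syk. Compound is tested at four added concentrations, 4 to 0.004 μg/mL.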

[3] = test system: PBMC cells; assay: Cell mitosis assay; format: cell-based; details: Homo sapiens, read-out: % Inhibition of mitosis in PBMC cells at 5 μg/mL
Summary of the method: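 Healthy-donor PBMCs (3 million cells per sample) stimulated with 2% PHA for 48 hr, then exposed 20 hr to varying compound concentrations. Demecolcine (0.1 μg/mL) added 2 hr before collection to arrest cells in metaphase; read by flow cytometry gated on lymphocytes.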

[4] = molecular target: cSrc (Homo sapiens, UniProt P12931); assay: c-Src enzyme inhibition (FRET); format: biochemical
Summary of the method: as §1

[5] = test system: IL-8 release, d-U937 cells; assay: LPS-induced IL-8 release in d-U937 cells; format: cell-based; details: Homo sapiens, dU937
Summary of the method: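 IL-8 release after a 4 hr challenge with LPS (0.1 μg/mL, E. coli 0111:B4) following a 2 hr compound pretreatment. Cells were human U937 monocytes differentiated to macrophage-type with PMA 100 ng/mL for 48–72 hr. Relative 50% effective concentration derived from concentration–response data.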

[6] = test system: TNFα release, d-U937 cells; assay: LPS-induced TNFα release in d-U937 cells; format: cell-based; details: Homo sapiens, dU937; for pEC50: relative to 10 μg/mL BIRB796, Table 4c1, read-out: LPS Induced Release of Cytokine in d-U937 Cells, TNFα REC50; for pIC50: Table 4c2, different laboratory, read-out: IC50 Values for Inhibition of Cytokine Release, dU937 cells, TNFα
Summary of the method: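 Sandwich ELISA quantifies cytokine in supernatants after 4 hr LPS challenge (0.1 μg/mL) of PMA-differentiated (100 ng/mL, 48–72 hr) U937 macrophages given compound 2 hr beforehand. REC50 derived from concentration-response curve, inhibition calculated relative to vehicle.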

[7] = test system: HRV16 in MRC5 cells; assay: HRV16 induced CPE in MRC5 cells; format: cell-based; details: Human rhinovirus sp., HRV-16
Protocol: (j) Assessment of HRV16 Induced CPE in MRC5 Cells
MRC-5 cells are infected with HRV16 at an MOI of 1n DMEM containing 5% FCS and 1.5 mM magnesium chloride, followed by incubation for 1 hr at 33° C. to promote adsorption. The supernatants are aspirated, and then fresh media added followed by incubation for 4 days. Where appropriate, cells are pre-incubated with compound or DMSO for 2 hr, and the compounds and DMSO added again after washout of the virus.
After washing, 1% SDS in distilled water (100 μL) is added to each well, and the plates are shaken lightly for 1-2 hr prior to reading the absorbance at 660 nm. The percentage inhibition for each well is calculated. The IC50 value is calculated from the concentration-response curve generated by the serial dilutions of the test compounds.

[8] = test system: IL-2 release, PBMCs; assay: IL-2 release in CD3/CD28 stimulated PBMC cells; format: cell-based; details: Homo sapiens, read-out: IC50 Values for Inhibition of Cytokine Release, PBMCs, IL-2
[9] = Table 4c1, read-out: LPS Induced Release of Cytokine in d-U937 Cells, IL-8 IC50
[10] = Table 4a2, different laboratory
[11] = Table 4c2, different laboratory, read-out: IC50 Values for Inhibition of Cytokine Release, dU937 cells, IL-8

Chain of cSrc (P12931 whole entry): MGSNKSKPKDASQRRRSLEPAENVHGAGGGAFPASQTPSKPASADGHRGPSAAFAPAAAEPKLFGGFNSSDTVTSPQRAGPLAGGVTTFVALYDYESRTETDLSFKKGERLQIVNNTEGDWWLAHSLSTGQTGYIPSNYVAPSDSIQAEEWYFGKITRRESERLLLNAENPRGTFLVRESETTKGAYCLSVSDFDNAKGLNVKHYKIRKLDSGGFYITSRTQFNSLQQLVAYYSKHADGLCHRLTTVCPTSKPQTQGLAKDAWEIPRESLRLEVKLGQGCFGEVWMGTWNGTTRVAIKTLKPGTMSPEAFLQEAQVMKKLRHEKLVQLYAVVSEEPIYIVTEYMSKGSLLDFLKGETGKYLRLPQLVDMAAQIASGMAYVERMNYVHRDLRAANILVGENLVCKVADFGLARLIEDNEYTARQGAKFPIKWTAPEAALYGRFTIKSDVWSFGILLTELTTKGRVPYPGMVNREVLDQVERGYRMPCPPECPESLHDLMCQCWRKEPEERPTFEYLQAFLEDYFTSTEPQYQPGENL

| Compound | Cell viability at time point in d-U937 cells, 4 h [1] | Cell viability at time point in d-U937 cells, 24 h [1] | pIC50 ([2]; Table 4a1) | inhibition at 5 µg/mL [3] | pIC50 ([4]; Table 4a1) | pIC50 [5, 9] | pEC50 [6] | pIC50 [7] | pIC50 [4, 10] | pIC50 [8] | pIC50 [6] | pIC50 [2, 10] | pIC50 [5, 11] |
| --- | --- | --- | --- | --- | --- | --- | --- | --- | --- | --- | --- | --- | --- |
| COc1ccc(-n2nc(C(C)(C)C)cc2NC(=O)Nc2ccc(Oc3ccnc(Nc4cc(Br)cc(C(N)=O)c4)n3)c3ccccc23)cc1 [Example 42, 3-bromo-5-((4-((4-(3-(3-(tert-butyl)-1-(4-methoxyphenyl)-1H-pyrazol-5-yl)ureido)naphthalen-1-yl)oxy)pyrimidin-2-yl)amino)benzamide] | −ve (−ve and +ve indicate that the value is below and above respectively, the no significant effect threshold, defined as 30% inhibition at 1 μg/mL at the time point indicated) | −ve (−ve and +ve indicate that the value is below and above respectively, the no significant effect threshold, defined as 30% inhibition at 1 μg/mL at the time point indicated) | 7.17 | 12.9% | 7.70 | 8.70 | 8.82 | 8.66 | – | – | – | – | – |
| Cc1ccc(-n2nc(C(C)C)cc2NC(=O)Nc2ccc(Oc3ccnc(Nc4cc(C(=O)NCCN5CCOCC5)cc(C(F)(F)F)c4)n3)c3ccccc23)cc1 [Example 7, 3-((4-((4-(3-(3-isopropyl-1-(p-tolyl)-1H-pyrazol-5-yl)ureido)naphthalen-1-yl)oxy)pyrimidin-2-yl)amino)-N-(2-morpholinoethyl)-5-(trifluoromethyl)benzamide] | −ve (−ve and +ve indicate that the value is below and above respectively, the no significant effect threshold, defined as 30% inhibition at 1 μg/mL at the time point indicated) | −ve (−ve and +ve indicate that the value is below and above respectively, the no significant effect threshold, defined as 30% inhibition at 1 μg/mL at the time point indicated) | – | 20.6% | 7.89 | 8.82 | 9.70 | – | 7.57 | 6.59 | 8.57 | – | – |
| C#Cc1cc(Nc2nccc(Oc3ccc(NC(=O)Nc4cc(C(C)(C)C)nn4-c4ccc(N(C)C)cc4)c4ccccc34)n2)cc(C(=O)NCCN2CCOCC2)c1 [Example 80, 3-((4-((4-(3-(3-(tert-Butyl)-1-(4-(dimethylamino)phenyl)-1H-pyrazol-5-yl)ureido)naphthalen-1-yl)oxy)pyrimidin-2-yl)amino)-5-ethynyl-N-(2-morpholinoethyl)-benzamide] | – | – | – | 10.4% | – | – | – | – | 7.72 | 8.64 | 9.52 | 7.60 | 9.30 |
| COc1cc(Nc2nccc(Oc3ccc(NC(=O)Nc4cc(C5CC5)nn4-c4ccc(C)cc4)c4ccccc34)n2)cc(C(=O)NCCN2CCOCC2)c1 [Example 50, 3-((4-((4-(3-(3-cyclopropyl-1-(p-tolyl)-1H-pyrazol-5-yl)ureido)naphthalen-1-yl)oxy)pyrimidin-2-yl)amino)-5-methoxy-N-(2-morpholinoethyl)benzamide] | −ve (−ve and +ve indicate that the value is below and above respectively, the no significant effect threshold, defined as 30% inhibition at 1 μg/mL at the time point indicated) | −ve (−ve and +ve indicate that the value is below and above respectively, the no significant effect threshold, defined as 30% inhibition at 1 μg/mL at the time point indicated) | 7.49 | – | > 9.00 | 8.10 | 8.28 | 8.17 | – | – | – | – | – |
| C#Cc1cc(Nc2nccc(Oc3ccc(NC(=O)Nc4cc(C(C)(C)C)nn4-c4ccc(OC)cc4)c4ccccc34)n2)cc(C(=O)NCCN2CCOCC2)c1 [Example 77, 3-((4-((4-(3-(3-(tert-Butyl)-1-(4-methoxyphenyl)-1H-pyrazol-5-yl)ureido)-naphthalen-1-yl)oxy)pyrimidin-2-yl)amino)-5-ethynyl-N-(2-morpholinoethyl)benzamide] | – | – | – | -0.3% | – | – | – | – | 7.92 | 7.37 | 9.40 | 7.74 | 9.05 |
| COCCNC(=O)c1cc(Nc2nccc(Oc3ccc(NC(=O)Nc4cc(C(C)C)nn4-c4ccc(OC)cc4)c4ccccc34)n2)cc(OC)c1 [Example 11, 3-((4-((4-(3-(3-Isopropyl-1-(4-methoxyphenyl)-1H-pyrazol-5-yl)ureido)naphthalen-1-yl)oxy)pyrimidin-2-yl)amino)-5-methoxy-N-(2-methoxyethyl)benzamide] | −ve (−ve and +ve indicate that the value is below and above respectively, the no significant effect threshold, defined as 30% inhibition at 1 μg/mL at the time point indicated) | −ve (−ve and +ve indicate that the value is below and above respectively, the no significant effect threshold, defined as 30% inhibition at 1 μg/mL at the time point indicated) | 7.12 | 50.7% | 8.10 | 8.89 | 9.70 | – | 7.82 | 7.56 | 9.52 | 6.90 | – |
| COc1cc(Nc2nccc(Oc3ccc(NC(=O)Nc4cc(C5(C)CC5)nn4-c4ccc(C)cc4)c4ccccc34)n2)cc(C(=O)NCCN2CCOCC2)c1 [Example 51, 3-methoxy-5-((4-((4-(3-(3-(1-methylcyclopropyl)-1-(p-tolyl)-1H-pyrazol-5-yl)ureido)naphthalen-1-yl)oxy)pyrimidin-2-yl)amino)-N-(2-morpholinoethyl)benzamide] | −ve (−ve and +ve indicate that the value is below and above respectively, the no significant effect threshold, defined as 30% inhibition at 1 μg/mL at the time point indicated) | −ve (−ve and +ve indicate that the value is below and above respectively, the no significant effect threshold, defined as 30% inhibition at 1 μg/mL at the time point indicated) | 6.19 | 20% | > 9.00 | 9.22 | 9.00 | 8.72 | – | – | – | – | – |
| C#Cc1cc(Nc2nccc(Oc3ccc(NC(=O)Nc4cc(C(C)C)nn4-c4ccc(C)cc4)c4ccccc34)n2)cc(C(=O)NCCN2CCOCC2)c1 [Example 46, 3-ethynyl-5-((4-((4-(3-(3-isopropyl-1-(p-tolyl)-1H-pyrazol-5-yl)ureido)naphthalen-1-yl)oxy)pyrimidin-2-yl)amino)-N-(2-morpholinoethyl)benzamide] | −ve (−ve and +ve indicate that the value is below and above respectively, the no significant effect threshold, defined as 30% inhibition at 1 μg/mL at the time point indicated) | −ve (−ve and +ve indicate that the value is below and above respectively, the no significant effect threshold, defined as 30% inhibition at 1 μg/mL at the time point indicated) | – | -6.7% | – | – | – | – | 7.85 | 7.23 | 8.96 | 7.66 | 8.62 |
